Measured values from patent US20240210412A1, “SULFONYL-TRIAZOLE COMPOUNDS USEFUL AS LIGANDS AND INHIBITORS OF PROSTAGLANDIN REDUCTASE 2” (University of Virginia Patent Foundation, priority 2021, published 2024).

Assays:
Assay in all cases: SILAC LC-MS ABPP
Assay type in all cases: cell-based
Conditions in all cases: 25 μM 2 h, live DM93 cells
P09874 = target: T1, P09874 (Homo sapiens, UniProt P09874)
T1 construct: endogenous in cells; host or cells: DM93 cells (SILAC)
Method in brief: (§1)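 First, heavy-labelled DM93 cells were exposed to SuTEx ligand (25 μM) and light cells to DMSO, 2 h at 37 °C. Second, HHS-475 (100 μM) was added for 2 h. Third, soluble lysates were clicked to desthiobiotin-azide, pooled 1:1, trypsin-digested, avidin-enriched and analysed by LC-MS/MS.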

Q13033 = target: T2, Q13033 (Homo sapiens, UniProt Q13033)
T2 construct: performing SuTEx compound screening directly in cells; endogenous in cells; host or cells: DM93 cells (SILAC), soluble fraction
T2 sequence (Q13033 whole entry): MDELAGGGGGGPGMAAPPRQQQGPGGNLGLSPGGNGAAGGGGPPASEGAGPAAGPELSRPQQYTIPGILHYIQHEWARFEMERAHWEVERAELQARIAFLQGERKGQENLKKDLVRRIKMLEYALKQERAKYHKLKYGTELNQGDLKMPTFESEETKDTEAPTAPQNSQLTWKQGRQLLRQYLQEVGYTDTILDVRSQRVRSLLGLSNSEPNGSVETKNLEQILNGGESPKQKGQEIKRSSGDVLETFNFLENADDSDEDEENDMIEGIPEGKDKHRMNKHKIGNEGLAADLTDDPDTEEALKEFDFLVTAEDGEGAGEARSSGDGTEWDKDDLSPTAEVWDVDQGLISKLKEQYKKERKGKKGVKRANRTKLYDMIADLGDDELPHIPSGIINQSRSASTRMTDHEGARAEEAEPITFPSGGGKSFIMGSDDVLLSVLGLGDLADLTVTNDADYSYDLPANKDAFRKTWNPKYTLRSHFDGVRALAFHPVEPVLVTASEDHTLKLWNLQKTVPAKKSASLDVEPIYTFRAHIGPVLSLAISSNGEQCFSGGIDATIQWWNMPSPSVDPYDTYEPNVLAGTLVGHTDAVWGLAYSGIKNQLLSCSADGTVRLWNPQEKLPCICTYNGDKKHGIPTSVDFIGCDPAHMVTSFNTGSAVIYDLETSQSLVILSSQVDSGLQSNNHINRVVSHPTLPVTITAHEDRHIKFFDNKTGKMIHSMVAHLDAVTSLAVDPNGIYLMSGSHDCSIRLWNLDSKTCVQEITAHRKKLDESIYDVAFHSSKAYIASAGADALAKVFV
Method in brief: as §1

P02794 = target: T3, P02794 (Homo sapiens, UniProt P02794)
T3 construct: endogenous in cells; host or cells: DM93 cells (SILAC)
T3 sequence (P02794 whole entry): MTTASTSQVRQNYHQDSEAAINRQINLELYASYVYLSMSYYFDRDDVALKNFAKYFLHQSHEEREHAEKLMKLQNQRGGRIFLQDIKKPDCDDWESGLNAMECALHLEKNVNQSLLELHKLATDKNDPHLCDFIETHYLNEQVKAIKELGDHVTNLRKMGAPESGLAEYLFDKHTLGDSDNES
Method in brief: as §1

P48147 = target: T4, P48147 (Homo sapiens, UniProt P48147)
T4 construct: endogenous in cells; host or cells: DM93 cells (SILAC)
T4 sequence (P48147 whole entry): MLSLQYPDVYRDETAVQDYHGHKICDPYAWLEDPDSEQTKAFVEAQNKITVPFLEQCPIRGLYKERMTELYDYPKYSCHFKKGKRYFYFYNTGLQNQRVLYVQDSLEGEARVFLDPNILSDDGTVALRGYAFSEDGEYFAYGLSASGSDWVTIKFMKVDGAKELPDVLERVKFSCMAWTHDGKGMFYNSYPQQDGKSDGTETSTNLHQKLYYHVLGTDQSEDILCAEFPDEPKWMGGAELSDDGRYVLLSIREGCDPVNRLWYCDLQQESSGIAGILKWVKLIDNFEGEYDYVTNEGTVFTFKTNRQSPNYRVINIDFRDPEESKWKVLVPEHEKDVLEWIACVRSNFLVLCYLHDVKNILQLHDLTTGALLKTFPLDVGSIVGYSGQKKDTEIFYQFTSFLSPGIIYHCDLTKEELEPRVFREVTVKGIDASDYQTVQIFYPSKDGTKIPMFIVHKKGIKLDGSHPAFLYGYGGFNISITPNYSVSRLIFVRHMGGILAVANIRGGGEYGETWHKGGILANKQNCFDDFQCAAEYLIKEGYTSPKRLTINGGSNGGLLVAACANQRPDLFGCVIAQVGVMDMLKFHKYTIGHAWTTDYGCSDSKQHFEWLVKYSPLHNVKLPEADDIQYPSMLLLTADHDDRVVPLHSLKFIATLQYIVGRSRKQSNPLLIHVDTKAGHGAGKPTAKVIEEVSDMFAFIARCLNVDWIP
Method in brief: as §1

P61326 = target: T5, P61326 (Homo sapiens, UniProt P61326)
T5 construct: performing SuTEx compound screening directly in cells; endogenous in cells; host or cells: DM93 cells (SILAC)
T5 sequence (P61326 whole entry): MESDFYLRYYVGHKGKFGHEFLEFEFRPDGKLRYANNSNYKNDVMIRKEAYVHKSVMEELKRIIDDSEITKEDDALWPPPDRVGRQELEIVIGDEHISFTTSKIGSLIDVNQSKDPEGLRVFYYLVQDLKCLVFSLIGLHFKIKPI
Method in brief: as §1

P62847 = target: T6, P62847 (Homo sapiens, UniProt P62847)
T6 construct: performing SuTEx compound screening directly in cells; endogenous in cells; host or cells: DM93 cells (SILAC)
Method in brief: as §1

Q15654 = target: T7, Q15654 (Homo sapiens, UniProt Q15654)
T7 construct: performing SuTEx compound screening directly in cells; endogenous in cells; host or cells: DM93 cells (SILAC), soluble fraction
T7 sequence (Q15654 whole entry): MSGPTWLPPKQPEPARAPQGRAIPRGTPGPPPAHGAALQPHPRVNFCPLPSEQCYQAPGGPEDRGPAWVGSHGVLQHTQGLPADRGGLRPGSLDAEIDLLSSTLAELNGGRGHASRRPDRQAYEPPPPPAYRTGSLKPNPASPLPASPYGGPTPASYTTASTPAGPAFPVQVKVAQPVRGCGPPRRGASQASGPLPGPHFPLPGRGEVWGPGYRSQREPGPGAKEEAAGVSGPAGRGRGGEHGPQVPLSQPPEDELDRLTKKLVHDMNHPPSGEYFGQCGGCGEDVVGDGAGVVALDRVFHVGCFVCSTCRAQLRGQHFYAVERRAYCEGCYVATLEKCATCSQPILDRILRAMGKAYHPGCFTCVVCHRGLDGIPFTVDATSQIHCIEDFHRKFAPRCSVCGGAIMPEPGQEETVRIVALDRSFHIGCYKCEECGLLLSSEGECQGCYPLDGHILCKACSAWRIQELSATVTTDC
Method in brief: as §1

Q6ZSZ5 = target: T8, Q6ZSZ5 (Homo sapiens, UniProt Q6ZSZ5)
T8 construct: endogenous in cells; host or cells: DM93 cells (SILAC), live-cell treatment
T8 sequence (Q6ZSZ5 whole entry): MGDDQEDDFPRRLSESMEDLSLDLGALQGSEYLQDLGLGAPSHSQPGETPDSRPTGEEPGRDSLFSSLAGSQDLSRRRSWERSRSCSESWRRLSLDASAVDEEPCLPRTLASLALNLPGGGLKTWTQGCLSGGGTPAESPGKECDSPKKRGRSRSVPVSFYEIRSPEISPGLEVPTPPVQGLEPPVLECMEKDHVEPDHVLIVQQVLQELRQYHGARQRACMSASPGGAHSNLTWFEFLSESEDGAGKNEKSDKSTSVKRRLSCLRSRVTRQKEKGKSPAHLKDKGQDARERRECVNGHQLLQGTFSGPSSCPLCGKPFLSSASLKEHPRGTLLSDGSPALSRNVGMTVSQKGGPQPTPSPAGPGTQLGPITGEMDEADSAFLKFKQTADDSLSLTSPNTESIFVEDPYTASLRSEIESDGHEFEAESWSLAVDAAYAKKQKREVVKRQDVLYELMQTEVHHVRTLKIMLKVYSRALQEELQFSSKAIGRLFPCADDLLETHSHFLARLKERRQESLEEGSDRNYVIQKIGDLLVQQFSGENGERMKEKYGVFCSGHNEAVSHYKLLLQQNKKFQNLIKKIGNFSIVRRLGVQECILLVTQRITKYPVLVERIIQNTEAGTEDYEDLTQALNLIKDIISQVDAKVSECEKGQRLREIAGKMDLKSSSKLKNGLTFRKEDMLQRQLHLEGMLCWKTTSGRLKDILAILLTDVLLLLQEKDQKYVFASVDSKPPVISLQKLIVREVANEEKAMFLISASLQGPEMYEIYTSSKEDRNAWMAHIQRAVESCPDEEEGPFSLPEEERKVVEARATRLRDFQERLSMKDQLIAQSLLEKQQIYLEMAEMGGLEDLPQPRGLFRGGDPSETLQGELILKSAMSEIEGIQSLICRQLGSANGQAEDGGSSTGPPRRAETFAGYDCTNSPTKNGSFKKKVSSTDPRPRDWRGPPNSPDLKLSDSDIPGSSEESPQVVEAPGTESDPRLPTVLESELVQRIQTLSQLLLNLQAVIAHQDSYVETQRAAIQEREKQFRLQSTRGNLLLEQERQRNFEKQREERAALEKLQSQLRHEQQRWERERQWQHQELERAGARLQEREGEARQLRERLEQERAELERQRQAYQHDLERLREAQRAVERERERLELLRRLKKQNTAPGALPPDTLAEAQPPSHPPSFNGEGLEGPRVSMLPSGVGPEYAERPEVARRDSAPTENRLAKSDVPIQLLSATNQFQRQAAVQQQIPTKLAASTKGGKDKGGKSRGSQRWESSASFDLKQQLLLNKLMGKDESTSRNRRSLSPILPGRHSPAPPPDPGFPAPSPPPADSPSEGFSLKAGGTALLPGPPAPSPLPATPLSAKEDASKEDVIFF
Method in brief: as §1

Q8IWS0 = target: T9, Q8IWS0 (Homo sapiens, UniProt Q8IWS0)
T9 construct: endogenous in cells; host or cells: DM93 cells (SILAC), live-cell treatment
Method in brief: as §1

Q9BWT3 = target: T10, Q9BWT3 (Homo sapiens, UniProt Q9BWT3)
T10 construct: endogenous in cells; host or cells: DM93 cells (SILAC), treated live; soluble proteome analysed
Method in brief: as §1

Q9C0C2 = target: T11, Q9C0C2 (Homo sapiens, UniProt Q9C0C2)
T11 construct: endogenous in cells; host or cells: DM93 cells (SILAC), treated live; soluble proteome analysed
Method in brief: as §1

P15880 = target: T12, P15880 (Homo sapiens, UniProt P15880)
T12 construct: endogenous in cells; host or cells: DM93 cells (SILAC)
Method in brief: as §1

Q13330 = target: T13, Q13330 (Homo sapiens, UniProt Q13330)
T13 construct: performing SuTEx compound screening directly in cells; endogenous in cells; host or cells: DM93 cells (SILAC), soluble fraction
T13 sequence (Q13330 whole entry): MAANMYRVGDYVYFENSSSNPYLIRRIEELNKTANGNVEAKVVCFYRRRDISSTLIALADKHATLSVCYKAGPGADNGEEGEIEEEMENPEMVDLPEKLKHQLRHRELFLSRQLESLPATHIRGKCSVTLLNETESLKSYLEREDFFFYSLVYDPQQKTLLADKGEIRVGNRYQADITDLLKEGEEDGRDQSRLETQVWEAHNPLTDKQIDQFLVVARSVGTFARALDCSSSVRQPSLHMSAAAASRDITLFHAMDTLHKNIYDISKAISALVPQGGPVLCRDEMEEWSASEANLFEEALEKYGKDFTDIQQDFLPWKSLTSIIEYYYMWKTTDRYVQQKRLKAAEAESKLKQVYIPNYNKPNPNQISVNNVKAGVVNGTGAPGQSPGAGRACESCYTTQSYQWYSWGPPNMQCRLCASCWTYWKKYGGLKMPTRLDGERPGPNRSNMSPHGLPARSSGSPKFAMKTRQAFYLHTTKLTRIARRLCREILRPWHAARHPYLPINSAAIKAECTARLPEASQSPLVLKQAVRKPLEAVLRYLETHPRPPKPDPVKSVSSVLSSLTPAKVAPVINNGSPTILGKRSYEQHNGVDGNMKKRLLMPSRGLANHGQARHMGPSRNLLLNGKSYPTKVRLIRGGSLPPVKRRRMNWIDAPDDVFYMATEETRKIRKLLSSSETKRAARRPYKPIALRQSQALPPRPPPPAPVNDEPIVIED
Method in brief: as §1

Q9NZQ3 = target: T14, Q9NZQ3 (Homo sapiens, UniProt Q9NZQ3)
T14 construct: endogenous in cells; host or cells: DM93 cells (SILAC)
Method in brief: as §1

P05455 = target: T15, P05455 (Homo sapiens, UniProt P05455)
T15 construct: endogenous in cells; host or cells: DM93 cells (SILAC)
Method in brief: as §1

P46013 = target: T16, P46013 (Homo sapiens, UniProt P46013)
T16 construct: endogenous in cells; host or cells: DM93 cells (SILAC)
Method in brief: as §1

Q9H3P2 = target: T17, Q9H3P2 (Homo sapiens, UniProt Q9H3P2)
T17 construct: endogenous in cells; host or cells: DM93 cells (SILAC), treated live; soluble proteome analysed
T17 sequence (Q9H3P2 whole entry): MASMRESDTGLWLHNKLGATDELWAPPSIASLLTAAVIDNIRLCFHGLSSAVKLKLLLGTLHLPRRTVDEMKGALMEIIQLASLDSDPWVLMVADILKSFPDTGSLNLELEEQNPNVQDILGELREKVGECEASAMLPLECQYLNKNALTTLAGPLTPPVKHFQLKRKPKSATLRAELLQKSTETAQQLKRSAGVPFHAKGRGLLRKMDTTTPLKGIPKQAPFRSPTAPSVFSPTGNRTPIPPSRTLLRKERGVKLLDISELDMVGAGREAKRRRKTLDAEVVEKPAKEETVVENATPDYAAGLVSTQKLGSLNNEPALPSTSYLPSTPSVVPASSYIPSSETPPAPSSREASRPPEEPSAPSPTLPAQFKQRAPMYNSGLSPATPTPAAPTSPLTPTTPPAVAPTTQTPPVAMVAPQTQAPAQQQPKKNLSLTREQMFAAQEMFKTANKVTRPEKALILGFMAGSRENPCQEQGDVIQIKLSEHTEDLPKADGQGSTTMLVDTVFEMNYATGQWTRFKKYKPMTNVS
Method in brief: as §1

O00267 = target: T18, O00267 (Homo sapiens, UniProt O00267)
T18 construct: endogenous in cells; host or cells: DM93
Method in brief: as §1

P82650 = target: T19, P82650 (Homo sapiens, UniProt P82650)
T19 construct: performing SuTEx compound screening directly in cells; endogenous in cells; host or cells: DM93 cells (SILAC)
Method in brief: as §1

Compound: O=C(NC1CC1)c1ccc(S(=O)(=O)n2cncn2)cc1 [HHS-0101, 4-((1H-1,2,4-triazol-1-yl)sulfonyl)-N-cyclopropylbenzamide]
- liganded tyrosine site 645 (P09874): HHS0101.Y (tyrosine sites that showed >80% reductions (SR >5) in probe labeling in cells treated with compounds (liganded sites))
- liganded tyrosine site 137 (Q13033): HHS0101.Y|HHS0401.Y (tyrosine sites that showed >80% reductions (SR >5) in probe labeling in cells treated with compounds (liganded sites))

Compound: O=C(NCC1CC1)c1ccc(S(=O)(=O)n2cncn2)cc1 [HHS-0201, 4-((1H-1,2,4-triazol-1-yl)sulfonyl)-N-(cyclopropylmethyl)benzamide]
- liganded tyrosine site 13 (P02794): HHS0201.Y (tyrosine sites that showed >80% reductions (SR >5) in probe labeling in cells treated with compounds (liganded sites))
- liganded tyrosine site 473 (P48147): HHS0201.Y (tyrosine sites that showed >80% reductions (SR >5) in probe labeling in cells treated with compounds (liganded sites))
- liganded tyrosine site 34 (P61326): HHS0201.Y (tyrosine sites that showed >80% reductions (SR >5) in probe labeling in cells treated with compounds (liganded sites))
- liganded tyrosine site 81 (P62847): HHS0201.Y (tyrosine sites that showed >80% reductions (SR >5) in probe labeling in cells treated with compounds (liganded sites))
- liganded tyrosine site 157 (Q15654): HHS0201.Y (tyrosine sites that showed >80% reductions (SR >5) in probe labeling in cells treated with compounds (liganded sites))
- liganded tyrosine site 1012 (Q6ZSZ5): HHS0201.Y (tyrosine sites that showed >80% reductions (SR >5) in probe labeling in cells treated with compounds (liganded sites))
- liganded tyrosine site 303 (Q8IWS0): HHS0201.Y (tyrosine sites that showed >80% reductions (SR >5) in probe labeling in cells treated with compounds (liganded sites))
- liganded tyrosine site 326 (Q9BWT3): HHS0201.Y|HHS0701.Y (tyrosine sites that showed >80% reductions (SR >5) in probe labeling in cells treated with compounds (liganded sites))
- liganded tyrosine site 897 (Q9C0C2): HHS0201.Y|HHS0301.Y|HHS0401.Y|HHS0701.Y (tyrosine sites that showed >80% reductions (SR >5) in probe labeling in cells treated with compounds (liganded sites))

Compound: O=C(NC1CCCCC1)c1ccc(S(=O)(=O)n2cncn2)cc1 [HHS-0301, 4-((1H-1,2,4-triazol-1-yl)sulfonyl)-N-cyclohexylbenzamide]
- liganded tyrosine site 250 (P15880): HHS0301.Y (tyrosine sites that showed >80% reductions (SR >5) in probe labeling in cells treated with compounds (liganded sites))
- liganded tyrosine site 22 (Q13330): HHS0301.Y (tyrosine sites that showed >80% reductions (SR >5) in probe labeling in cells treated with compounds (liganded sites))
- liganded tyrosine site 52 (Q9NZQ3): HHS0301.Y (tyrosine sites that showed >80% reductions (SR >5) in probe labeling in cells treated with compounds (liganded sites))

Compound: O=C(NCc1ccccc1)c1ccc(S(=O)(=O)n2cncn2)cc1 [HHS-0401, 4-((1H-1,2,4-triazol-1-yl)sulfonyl)-N-benzylbenzamide]
- liganded tyrosine site 188 (P05455): HHS0401.Y (tyrosine sites that showed >80% reductions (SR >5) in probe labeling in cells treated with compounds (liganded sites))
- liganded tyrosine site 340 (P46013): HHS0401.Y|HHS0701.Y (tyrosine sites that showed >80% reductions (SR >5) in probe labeling in cells treated with compounds (liganded sites))
- liganded tyrosine site 324 (Q9H3P2): HHS0401.Y|HHS0701.Y (tyrosine sites that showed >80% reductions (SR >5) in probe labeling in cells treated with compounds (liganded sites))

Compound: O=C(c1ccc(S(=O)(=O)n2cncn2)cc1)N1CCC(c2ccccc2)CC1 [HHS-0701, (4-((1H-1,2,4-triazol-1-yl)sulfonyl)phenyl)(4-phenylpiperidin-1-yl)methanone]
- liganded tyrosine site 249 (O00267): HHS0701.Y (tyrosine sites that showed >80% reductions (SR >5) in probe labeling in cells treated with compounds (liganded sites))
- liganded tyrosine site 163 (P82650): HHS0701.Y (tyrosine sites that showed >80% reductions (SR >5) in probe labeling in cells treated with compounds (liganded sites))
